Results: ChEMBL document CHEMBL1201862, “PubChem BioAssay data set” (2004)
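Assay format: 96-well plates, 48-hour exposure. Abbreviation: GI50, concentration required for 50% inhibition of growth.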 The source made the active and inactive calls. Cut-off read from the data, not from the text of the source: active = GI50 up to about 1.1 µM and inactive = higher.

Experiments:
Test in all cases: NCI-60 cell line screen, 48 h
[1] = tested on: 786-0
[2] = tested on: A549
[3] = tested on: CCRF-CEM
[4] = tested on: COLO 205
[5] = tested on: HCC 2998
[6] = tested on: HCT-116
[7] = tested on: HCT-15
[8] = tested on: IGROV-1
[9] = tested on: KM12
[10] = tested on: LOX IMVI
[11] = tested on: M14
[12] = tested on: MDA-MB-435
[13] = tested on: MDA-N
[14] = tested on: MOLT-4
[15] = tested on: Malme-3M
[16] = tested on: NCI-H460
[17] = tested on: OVCAR-4
[18] = tested on: OVCAR-8
[19] = tested on: RPMI-8226
[20] = tested on: SK-OV-3
[21] = tested on: SN12C
[22] = tested on: SNB-19
[23] = tested on: U-251
[24] = tested on: UACC-257
[25] = tested on: UACC-62
[26] = tested on: UO-31
[27] = tested on: ACHN
[28] = tested on: CAKI-1
[29] = tested on: DU-145
[30] = tested on: EKVX
[31] = tested on: HL-60
[32] = tested on: HOP-62
[33] = tested on: HOP-92
[34] = tested on: Hs-578T
[35] = tested on: K562
[36] = tested on: MCF7
[37] = tested on: MDA-MB-231
[38] = tested on: NCI-H226
[39] = tested on: NCI-H23
[40] = tested on: NCI/ADR-RES
[41] = tested on: OVCAR-3
[42] = tested on: OVCAR-5
[43] = tested on: PC-3
[44] = tested on: RXF 393
[45] = tested on: SF-268
[46] = tested on: SF-295
[47] = tested on: SK-MEL-28
[48] = tested on: SK-MEL-2
[49] = tested on: SK-MEL-5
[50] = tested on: SNB-75
[51] = tested on: SR
[52] = tested on: SW-620
[53] = tested on: T47D
[54] = tested on: A498
[55] = tested on: HT-29
[56] = tested on: SF-539
[57] = tested on: TK-10

## CO[C@@H]1/C=C\C=C(/C)C(=O)NC2=CC(=O)C(NCCN(C)C)=C(C[C@@H](C)C[C@@H](OC)[C@@H](O)[C@H](C)/C=C(\C)[C@H]1OC(N)=O)C2=O
[1]
  GI50: < 0.0204 µM (active)
[2]
  GI50: < 0.0117 µM (active)
[3]
  GI50: < 0.0144 µM (active)
[4]
  GI50: < 0.01 µM (active)
[5]
  GI50: < 0.0118 µM (active)
[6]
  GI50: < 0.0132 µM (active)
[7]
  GI50: 0.345 µM
[8]
  GI50: < 0.01 µM (active)
[9]
  GI50: < 0.01 µM (active)
[10]
  GI50: < 0.01 µM (active)
[11]
  GI50: < 0.01 µM (active)
[12]
  GI50: < 0.01 µM (active)
[13]
  GI50: < 0.01 µM (active)
[14]
  GI50: 0.0166 µM (active)
[15]
  GI50: < 0.01 µM (active)
[16]
  GI50: < 0.01 µM (active)
[17]
  GI50: 0.841 µM (active)
[18]
  GI50: < 0.0191 µM (active)
[19]
  GI50: 0.121 µM (active)
[20]
  GI50: 0.0121 µM (active)
[21]
  GI50: < 0.01 µM (active)
[22]
  GI50: < 0.0236 µM (active)
[23]
  GI50: < 0.01 µM (active)
[24]
  GI50: 0.0121 µM (active)
[25]
  GI50: < 0.01 µM (active)
[26]
  GI50: 0.652 µM (active)

## CN1C(=O)C(CCO)(C(C)(C)C)c2ccccc21 (stereo unspecified)
[1]
  GI50: > 100 µM (inactive)
[2]
  GI50: > 100 µM (inactive)
[27]
  GI50: > 100 µM (inactive)
[28]
  GI50: > 100 µM (inactive)
[3]
  GI50: > 100 µM (inactive)
[4]
  GI50: > 100 µM (inactive)
[29]
  GI50: > 100 µM (inactive)
[30]
  GI50: > 100 µM (inactive)
[5]
  GI50: > 100 µM (inactive)
[6]
  GI50: > 100 µM (inactive)
[7]
  GI50: > 100 µM
[31]
  GI50: > 100 µM (inactive)
[32]
  GI50: > 100 µM (inactive)
[33]
  GI50: > 100 µM (inactive)
[34]
  GI50: > 100 µM (inactive)
[35]
  GI50: > 100 µM (inactive)
[9]
  GI50: > 100 µM (inactive)
[10]
  GI50: > 100 µM (inactive)
[11]
  GI50: > 100 µM (inactive)
[36]
  GI50: > 100 µM (inactive)
[37]
  GI50: > 100 µM (inactive)
[12]
  GI50: > 100 µM (inactive)
[13]
  GI50: > 100 µM (inactive)
[14]
  GI50: > 100 µM (inactive)
[38]
  GI50: 97.9 µM (inactive)
[39]
  GI50: > 100 µM (inactive)
[16]
  GI50: > 100 µM (inactive)
[40]
  GI50: > 100 µM (inactive)
[41]
  GI50: > 100 µM (inactive)
[17]
  GI50: > 100 µM (inactive)
[42]
  GI50: > 100 µM (inactive)
[18]
  GI50: > 100 µM (inactive)
[43]
  GI50: > 100 µM (inactive)
[19]
  GI50: > 100 µM (inactive)
[44]
  GI50: > 100 µM (inactive)
[45]
  GI50: > 100 µM (inactive)
[46]
  GI50: > 100 µM (inactive)
[47]
  GI50: > 100 µM (inactive)
[48]
  GI50: > 100 µM (inactive)
[49]
  GI50: > 100 µM (inactive)
[20]
  GI50: > 100 µM (inactive)
[21]
  GI50: > 100 µM (inactive)
[22]
  GI50: > 100 µM (inactive)
[50]
  GI50: 68.1 µM (inactive)
[51]
  GI50: > 100 µM (inactive)
[52]
  GI50: > 100 µM (inactive)
[53]
  GI50: > 100 µM (inactive)
[23]
  GI50: > 100 µM (inactive)
[24]
  GI50: > 100 µM (inactive)
[25]
  GI50: > 100 µM (inactive)
[26]
  GI50: > 100 µM (inactive)

## CN1c2ccccc2C(=O)NC12CCN(CC1COc3ccccc3O1)CC2 (stereo unspecified)
[1]
  GI50: 69.7 µM (inactive)
[54]
  GI50: 20.3 µM (inactive)
[2]
  GI50: 50.6 µM (inactive)
[27]
  GI50: 19.6 µM (inactive)
[3]
  GI50: 36.1 µM (inactive)
[4]
  GI50: 48.3 µM (inactive)
[29]
  GI50: 61 µM (inactive)
[30]
  GI50: 51.6 µM (inactive)
[5]
  GI50: > 100 µM (inactive)
[6]
  GI50: 37.3 µM (inactive)
[31]
  GI50: 25.4 µM (inactive)
[32]
  GI50: 49.8 µM (inactive)
[33]
  GI50: 14 µM (inactive)
[55]
  GI50: 31.9 µM (inactive)
[34]
  GI50: 32.7 µM (inactive)
[8]
  GI50: 45.1 µM (inactive)
[35]
  GI50: 31.3 µM (inactive)
[9]
  GI50: 32.6 µM (inactive)
[10]
  GI50: 45.1 µM (inactive)
[11]
  GI50: 27.8 µM (inactive)
[36]
  GI50: 31.8 µM (inactive)
[12]
  GI50: 33.4 µM (inactive)
[14]
  GI50: 23.1 µM (inactive)
[15]
  GI50: 33 µM (inactive)
[38]
  GI50: 19.2 µM (inactive)
[39]
  GI50: 45.8 µM (inactive)
[16]
  GI50: 21.3 µM (inactive)
[40]
  GI50: 31.6 µM (inactive)
[17]
  GI50: 29.9 µM (inactive)
[42]
  GI50: 48.6 µM (inactive)
[18]
  GI50: 60.5 µM (inactive)
[19]
  GI50: 30.5 µM (inactive)
[44]
  GI50: > 100 µM (inactive)
[45]
  GI50: > 100 µM (inactive)
[46]
  GI50: 57.7 µM (inactive)
[56]
  GI50: 36.4 µM (inactive)
[47]
  GI50: 55.3 µM (inactive)
[49]
  GI50: 16.2 µM (inactive)
[20]
  GI50: > 100 µM (inactive)
[22]
  GI50: 31.3 µM (inactive)
[50]
  GI50: > 100 µM (inactive)
[51]
  GI50: 23.8 µM (inactive)
[52]
  GI50: 77.8 µM (inactive)
[53]
  GI50: 21.2 µM (inactive)
[57]
  GI50: 44.8 µM (inactive)
[23]
  GI50: 40.2 µM (inactive)
[24]
  GI50: 22 µM (inactive)
[25]
  GI50: 29.7 µM (inactive)
[26]
  GI50: 16.9 µM (inactive)
